Test results from US12459876B2, “One-step kit-based synthesis of 2-deoxy-2-[18F]fluoro-D-sorbitol” (The Johns Hopkins University, priority 2020, dated 2025).
Like-named read-outs stand apart in the source and are kept apart here.

Tests used:
[1] = tested on: K. pneumoniae; details: intravenous; PET 120 minutes post-tracer injection; n=6; Mann Whitney U test
[2] = in vivo; cited from earlier work
[3] = tested on: E. coli; details: cited from earlier work
[4] = tested on: Enterobacterales
[5] = human, in vivo; cited from earlier work
[6] = rat, in vivo; cited from earlier work

OC[C@@H](O)[C@@H](O)[C@H](O)[C@@H]([18F])CO [^18F-FDS, 2-deoxy-2-[^18F]fluoro-D-sorbitol]
SUVmean, areas of pneumonia compared to unaffected lung [1]: significantly higher | Route of clearance [2]: predominantly cleared through the kidneys | Detection of therapeutic failures ([3]; MDR, extended-spectrum β-lactamase producing E. coli strains): detect therapeutic failures | Distinction of infection from sterile inflammation ([3]; mouse models): able to distinguish infection from sterile inflammation | PET signal outside the site of infection (biodistribution) ([4]; patient with Enterobacter aerogenes cellulitis, MIP): Signal also is noted in the heart (blood pool), liver, kidneys, and the urinary bladder | Monitoring of antimicrobial response by repeat imaging ([4]; patients, repeat imaging after antibiotic treatments): able to monitor antimicrobial response | Accumulation in the renal cortex [5]: rapid ^18F-FDS accumulation in the renal cortex with gradual transition to the parenchyma | Accumulation in the renal cortex [6]: rapid accumulation | Renal uptake [6]: significantly delayed
